Experimental findings from ChEMBL document CHEMBL5653631, “A Potent and Selective ULK1 Inhibitor Suppresses Autophagy and Sensitizes Cancer Cells to Nutrient Stress” (iScience, 2018) are described below.

For test [1], the target named is T1, Mitogen-activated protein kinase kinase kinase kinase 2 (Homo sapiens) (UniProt Q12851).
T1 sequence (whole entry): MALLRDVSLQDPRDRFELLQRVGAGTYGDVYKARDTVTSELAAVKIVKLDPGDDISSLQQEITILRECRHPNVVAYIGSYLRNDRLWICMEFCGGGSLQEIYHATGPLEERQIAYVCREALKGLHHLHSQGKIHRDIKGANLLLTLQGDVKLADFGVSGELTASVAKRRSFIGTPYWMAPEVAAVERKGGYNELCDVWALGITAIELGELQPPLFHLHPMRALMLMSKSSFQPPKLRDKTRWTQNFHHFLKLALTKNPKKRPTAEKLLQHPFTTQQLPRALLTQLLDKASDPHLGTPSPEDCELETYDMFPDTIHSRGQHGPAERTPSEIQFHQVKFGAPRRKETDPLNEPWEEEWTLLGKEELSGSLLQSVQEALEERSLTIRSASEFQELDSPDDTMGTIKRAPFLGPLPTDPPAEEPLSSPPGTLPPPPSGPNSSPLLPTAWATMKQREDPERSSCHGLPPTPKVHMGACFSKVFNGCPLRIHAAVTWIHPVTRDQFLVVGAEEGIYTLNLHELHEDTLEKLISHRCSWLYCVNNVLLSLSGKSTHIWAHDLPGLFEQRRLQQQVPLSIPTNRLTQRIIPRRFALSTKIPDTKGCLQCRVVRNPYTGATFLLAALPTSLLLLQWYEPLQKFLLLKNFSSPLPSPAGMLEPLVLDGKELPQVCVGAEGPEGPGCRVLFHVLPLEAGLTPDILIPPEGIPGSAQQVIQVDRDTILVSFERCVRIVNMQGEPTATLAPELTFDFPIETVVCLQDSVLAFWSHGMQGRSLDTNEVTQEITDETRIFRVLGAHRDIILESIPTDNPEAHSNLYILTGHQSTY
Description: Inhibition of human recombinant GCK at 40 nM in presence of ATP by radiometric assay relative to control.

Test [2] has as its target SRSF protein kinase 1 (Homo sapiens) (UniProt Q96SB4). Description: Inhibition of human recombinant SRPK1 at 40 nM related to control ULK1.
The target in test [3] is T2, Serine/threonine-protein kinase DCLK3 (Homo sapiens) (UniProt Q9C098).
T2 sequence (whole entry): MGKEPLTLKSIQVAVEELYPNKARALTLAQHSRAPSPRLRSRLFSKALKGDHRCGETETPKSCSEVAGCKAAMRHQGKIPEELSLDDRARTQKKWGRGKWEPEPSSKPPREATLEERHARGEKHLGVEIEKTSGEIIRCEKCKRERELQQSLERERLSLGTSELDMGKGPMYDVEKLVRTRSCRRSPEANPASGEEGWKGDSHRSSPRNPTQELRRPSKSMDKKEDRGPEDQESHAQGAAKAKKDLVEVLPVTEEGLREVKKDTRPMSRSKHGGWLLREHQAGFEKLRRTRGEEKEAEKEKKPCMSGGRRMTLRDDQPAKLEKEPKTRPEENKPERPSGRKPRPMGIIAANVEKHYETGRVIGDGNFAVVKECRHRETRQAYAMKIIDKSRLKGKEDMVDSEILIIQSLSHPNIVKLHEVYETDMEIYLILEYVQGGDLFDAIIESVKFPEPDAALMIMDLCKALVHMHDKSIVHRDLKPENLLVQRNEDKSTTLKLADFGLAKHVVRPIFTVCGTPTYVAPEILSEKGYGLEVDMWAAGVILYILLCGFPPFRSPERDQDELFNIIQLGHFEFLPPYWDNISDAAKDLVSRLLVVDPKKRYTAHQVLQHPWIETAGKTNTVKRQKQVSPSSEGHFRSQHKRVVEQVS
Description: Inhibition of human recombinant DCAMKL3 at 40 nM related to control ULK1.

Test [4] deals with Serine/threonine-protein kinase WNK3 (Homo sapiens) (UniProt Q9BYP7). Description: Inhibition of human recombinant Wnk3 at 40 nM in presence of ATP by radiometric assay relative to control.
The target of test [5] is Receptor-interacting serine/threonine-protein kinase 2 (Homo sapiens) (UniProt O43353). Description: Inhibition of human recombinant RIPK2 at 500 nM in presence of ATP by radiometric assay relative to control.
In test [6] the target is Serine/threonine-protein kinase 35 (Homo sapiens) (UniProt Q8TDR2). Description: Inhibition of human recombinant CLIK1 at 500 nM in presence of ATP by radiometric assay relative to control.
Test [7] concerns the target Serine/threonine-protein kinase PAK 4 (Homo sapiens) (UniProt O96013). Description: Inhibition of human recombinant PAK4 at 500 nM in presence of ATP by radiometric assay relative to control.
The target of test [8] is Calcium/calmodulin-dependent protein kinase type II subunit gamma (Homo sapiens) (UniProt Q13555). Description: Inhibition of human recombinant CaMK2g at 500 nM in presence of ATP by radiometric assay relative to control.
For test [9], the target named is T3, SNF-related serine/threonine-protein kinase (Homo sapiens) (UniProt Q9NRH2).
T3 sequence (whole entry): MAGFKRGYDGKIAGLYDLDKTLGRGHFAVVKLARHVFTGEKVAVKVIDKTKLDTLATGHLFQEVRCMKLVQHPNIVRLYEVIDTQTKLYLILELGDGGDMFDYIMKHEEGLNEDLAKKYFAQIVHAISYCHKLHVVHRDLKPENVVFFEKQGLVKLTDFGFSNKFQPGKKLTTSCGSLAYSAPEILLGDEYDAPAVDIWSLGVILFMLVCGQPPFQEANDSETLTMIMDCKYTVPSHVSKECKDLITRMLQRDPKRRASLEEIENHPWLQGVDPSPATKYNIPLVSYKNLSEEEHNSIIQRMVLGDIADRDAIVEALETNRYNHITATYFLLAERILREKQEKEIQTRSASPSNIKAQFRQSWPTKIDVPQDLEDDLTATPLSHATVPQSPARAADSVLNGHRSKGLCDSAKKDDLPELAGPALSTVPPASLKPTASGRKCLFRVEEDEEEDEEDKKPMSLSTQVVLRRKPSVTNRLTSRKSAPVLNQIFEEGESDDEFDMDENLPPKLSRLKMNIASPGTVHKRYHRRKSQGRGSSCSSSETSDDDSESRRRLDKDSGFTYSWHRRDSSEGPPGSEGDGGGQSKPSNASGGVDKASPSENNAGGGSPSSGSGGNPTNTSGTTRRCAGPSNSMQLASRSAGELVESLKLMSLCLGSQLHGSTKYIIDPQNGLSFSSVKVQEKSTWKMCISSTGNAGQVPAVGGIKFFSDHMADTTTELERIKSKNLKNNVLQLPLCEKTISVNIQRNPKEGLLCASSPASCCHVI
Description: Inhibition of human recombinant SNRK at 15 nM related to control ULK1.

Test [10] has as its target MAP/microtubule affinity-regulating kinase 3 (Homo sapiens) (UniProt P27448). Description: Inhibition of human recombinant MARK3 at 15 nM in presence of ATP by radiometric assay relative to control.
Test [11] concerns the target Casein kinase II subunit alpha (Homo sapiens) (UniProt P68400). Description: Inhibition of human recombinant CK2a1 at 15 nM related to control ULK1.

Receptor-interacting serine/threonine-protein kinase 2 (Homo sapiens), sequence (O43353 whole entry): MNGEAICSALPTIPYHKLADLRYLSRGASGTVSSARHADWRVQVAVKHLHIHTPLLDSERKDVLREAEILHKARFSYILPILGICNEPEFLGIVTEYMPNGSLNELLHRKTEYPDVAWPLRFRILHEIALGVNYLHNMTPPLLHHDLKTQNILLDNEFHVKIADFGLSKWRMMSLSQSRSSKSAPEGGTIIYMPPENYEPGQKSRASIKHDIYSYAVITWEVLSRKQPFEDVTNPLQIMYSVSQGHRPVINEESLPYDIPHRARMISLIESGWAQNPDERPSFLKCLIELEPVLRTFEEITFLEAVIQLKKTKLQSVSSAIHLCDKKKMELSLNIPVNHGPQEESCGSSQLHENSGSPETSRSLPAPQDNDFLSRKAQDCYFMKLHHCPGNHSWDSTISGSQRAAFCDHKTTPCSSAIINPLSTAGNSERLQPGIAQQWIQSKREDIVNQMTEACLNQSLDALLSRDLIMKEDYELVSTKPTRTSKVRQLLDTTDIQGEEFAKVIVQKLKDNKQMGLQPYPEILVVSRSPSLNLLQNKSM
Serine/threonine-protein kinase WNK3 (Homo sapiens), sequence (Q9BYP7 whole entry): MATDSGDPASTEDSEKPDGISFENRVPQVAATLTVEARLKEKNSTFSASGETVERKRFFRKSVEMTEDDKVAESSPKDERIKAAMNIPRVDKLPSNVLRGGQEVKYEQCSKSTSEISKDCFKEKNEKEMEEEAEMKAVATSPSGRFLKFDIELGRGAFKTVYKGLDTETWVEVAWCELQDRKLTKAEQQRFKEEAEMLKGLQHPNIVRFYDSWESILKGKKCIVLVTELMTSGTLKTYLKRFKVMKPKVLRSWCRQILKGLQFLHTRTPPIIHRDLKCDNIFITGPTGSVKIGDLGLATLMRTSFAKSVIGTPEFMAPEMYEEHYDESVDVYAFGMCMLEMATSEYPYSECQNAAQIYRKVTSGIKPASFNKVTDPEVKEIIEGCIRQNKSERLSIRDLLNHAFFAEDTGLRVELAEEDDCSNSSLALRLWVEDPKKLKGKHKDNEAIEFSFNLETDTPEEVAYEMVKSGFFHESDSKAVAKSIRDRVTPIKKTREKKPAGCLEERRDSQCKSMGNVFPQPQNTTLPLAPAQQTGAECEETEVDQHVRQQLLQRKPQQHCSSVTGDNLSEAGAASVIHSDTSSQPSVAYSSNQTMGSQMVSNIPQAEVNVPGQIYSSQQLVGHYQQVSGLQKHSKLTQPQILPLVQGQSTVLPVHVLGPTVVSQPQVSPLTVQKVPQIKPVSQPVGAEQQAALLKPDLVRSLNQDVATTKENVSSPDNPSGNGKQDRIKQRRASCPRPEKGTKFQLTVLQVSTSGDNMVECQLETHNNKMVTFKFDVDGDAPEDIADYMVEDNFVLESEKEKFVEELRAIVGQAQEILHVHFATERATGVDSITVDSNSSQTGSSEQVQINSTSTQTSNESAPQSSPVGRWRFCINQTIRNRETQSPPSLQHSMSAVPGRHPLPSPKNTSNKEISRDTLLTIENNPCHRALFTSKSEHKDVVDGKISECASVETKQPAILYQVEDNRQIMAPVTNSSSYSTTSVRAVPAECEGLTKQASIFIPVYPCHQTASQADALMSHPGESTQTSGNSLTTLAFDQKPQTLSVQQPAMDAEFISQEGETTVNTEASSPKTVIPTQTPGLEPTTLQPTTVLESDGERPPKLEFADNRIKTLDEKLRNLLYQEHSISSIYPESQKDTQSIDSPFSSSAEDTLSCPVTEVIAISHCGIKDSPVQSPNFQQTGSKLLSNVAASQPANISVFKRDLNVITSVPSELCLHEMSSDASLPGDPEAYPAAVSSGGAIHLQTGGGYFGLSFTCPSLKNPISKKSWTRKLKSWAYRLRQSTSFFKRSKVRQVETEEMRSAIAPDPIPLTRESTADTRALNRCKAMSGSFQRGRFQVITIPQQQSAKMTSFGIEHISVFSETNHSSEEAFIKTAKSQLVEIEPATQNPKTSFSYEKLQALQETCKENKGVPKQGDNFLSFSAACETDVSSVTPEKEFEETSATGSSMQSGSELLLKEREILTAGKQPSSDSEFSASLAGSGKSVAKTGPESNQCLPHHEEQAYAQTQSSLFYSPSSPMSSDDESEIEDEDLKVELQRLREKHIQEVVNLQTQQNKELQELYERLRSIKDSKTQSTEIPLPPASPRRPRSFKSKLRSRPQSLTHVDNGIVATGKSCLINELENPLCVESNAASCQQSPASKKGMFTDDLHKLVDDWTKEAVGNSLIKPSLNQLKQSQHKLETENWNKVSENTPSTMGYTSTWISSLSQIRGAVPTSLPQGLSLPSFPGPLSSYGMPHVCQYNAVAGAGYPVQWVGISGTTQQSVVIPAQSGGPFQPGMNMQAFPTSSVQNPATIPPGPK
Calcium/calmodulin-dependent protein kinase type II subunit gamma (Homo sapiens), sequence (Q13555 whole entry): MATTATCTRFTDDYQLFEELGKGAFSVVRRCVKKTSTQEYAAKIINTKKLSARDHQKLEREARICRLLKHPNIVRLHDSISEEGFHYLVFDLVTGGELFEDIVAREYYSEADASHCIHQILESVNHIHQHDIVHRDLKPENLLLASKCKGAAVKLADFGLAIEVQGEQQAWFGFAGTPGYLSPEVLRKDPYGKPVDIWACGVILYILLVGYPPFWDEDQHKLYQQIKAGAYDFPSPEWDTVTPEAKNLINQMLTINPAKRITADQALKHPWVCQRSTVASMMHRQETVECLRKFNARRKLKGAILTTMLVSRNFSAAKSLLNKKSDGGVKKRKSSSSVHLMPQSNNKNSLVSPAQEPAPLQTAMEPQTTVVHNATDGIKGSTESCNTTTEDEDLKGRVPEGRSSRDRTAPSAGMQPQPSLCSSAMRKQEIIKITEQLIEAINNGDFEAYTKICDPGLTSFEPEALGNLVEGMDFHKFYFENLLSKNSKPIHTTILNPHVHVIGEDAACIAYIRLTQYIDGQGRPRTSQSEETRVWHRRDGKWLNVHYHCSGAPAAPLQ
Serine/threonine-protein kinase 35 (Homo sapiens), sequence (Q8TDR2 whole entry): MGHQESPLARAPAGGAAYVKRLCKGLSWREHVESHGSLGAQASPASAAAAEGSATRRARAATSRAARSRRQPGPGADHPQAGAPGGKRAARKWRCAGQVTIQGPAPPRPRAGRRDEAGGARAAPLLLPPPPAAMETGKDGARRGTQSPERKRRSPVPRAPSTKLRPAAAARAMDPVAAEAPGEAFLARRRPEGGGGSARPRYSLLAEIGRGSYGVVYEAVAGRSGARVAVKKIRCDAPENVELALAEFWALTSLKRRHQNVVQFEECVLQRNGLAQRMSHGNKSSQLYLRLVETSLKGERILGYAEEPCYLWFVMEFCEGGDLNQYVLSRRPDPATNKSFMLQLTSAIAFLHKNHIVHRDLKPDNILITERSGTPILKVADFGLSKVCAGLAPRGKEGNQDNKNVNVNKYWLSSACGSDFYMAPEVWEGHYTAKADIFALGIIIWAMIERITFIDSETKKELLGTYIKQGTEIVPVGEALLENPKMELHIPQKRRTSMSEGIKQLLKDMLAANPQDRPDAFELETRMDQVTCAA
Serine/threonine-protein kinase PAK 4 (Homo sapiens), sequence (O96013 whole entry, looked up): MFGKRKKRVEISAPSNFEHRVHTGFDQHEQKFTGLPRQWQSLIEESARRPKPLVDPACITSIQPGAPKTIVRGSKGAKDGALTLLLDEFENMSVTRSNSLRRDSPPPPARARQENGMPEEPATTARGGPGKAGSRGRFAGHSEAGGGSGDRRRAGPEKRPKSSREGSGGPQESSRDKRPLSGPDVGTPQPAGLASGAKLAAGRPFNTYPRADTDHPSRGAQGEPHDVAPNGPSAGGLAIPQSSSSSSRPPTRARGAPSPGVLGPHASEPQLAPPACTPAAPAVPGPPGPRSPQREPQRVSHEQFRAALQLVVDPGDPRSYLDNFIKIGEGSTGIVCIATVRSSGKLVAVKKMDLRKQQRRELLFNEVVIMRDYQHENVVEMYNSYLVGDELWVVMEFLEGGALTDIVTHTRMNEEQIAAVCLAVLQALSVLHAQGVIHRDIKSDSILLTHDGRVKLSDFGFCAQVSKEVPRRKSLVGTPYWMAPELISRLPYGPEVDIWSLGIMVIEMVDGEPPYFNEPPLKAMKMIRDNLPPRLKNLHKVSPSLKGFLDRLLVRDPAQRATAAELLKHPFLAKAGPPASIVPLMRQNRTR
Casein kinase II subunit alpha (Homo sapiens), sequence (P68400 whole entry, looked up): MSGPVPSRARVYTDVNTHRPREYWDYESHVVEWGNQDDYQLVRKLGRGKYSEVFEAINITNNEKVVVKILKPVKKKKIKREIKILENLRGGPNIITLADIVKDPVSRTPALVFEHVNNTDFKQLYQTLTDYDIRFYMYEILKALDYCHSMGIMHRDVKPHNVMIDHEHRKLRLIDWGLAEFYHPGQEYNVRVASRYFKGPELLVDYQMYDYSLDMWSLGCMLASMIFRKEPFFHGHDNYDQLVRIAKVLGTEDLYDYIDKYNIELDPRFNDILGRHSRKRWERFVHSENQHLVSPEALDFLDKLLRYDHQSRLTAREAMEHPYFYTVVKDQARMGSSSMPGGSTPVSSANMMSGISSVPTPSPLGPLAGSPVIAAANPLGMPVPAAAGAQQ
SRSF protein kinase 1 (Homo sapiens), sequence (Q96SB4 whole entry): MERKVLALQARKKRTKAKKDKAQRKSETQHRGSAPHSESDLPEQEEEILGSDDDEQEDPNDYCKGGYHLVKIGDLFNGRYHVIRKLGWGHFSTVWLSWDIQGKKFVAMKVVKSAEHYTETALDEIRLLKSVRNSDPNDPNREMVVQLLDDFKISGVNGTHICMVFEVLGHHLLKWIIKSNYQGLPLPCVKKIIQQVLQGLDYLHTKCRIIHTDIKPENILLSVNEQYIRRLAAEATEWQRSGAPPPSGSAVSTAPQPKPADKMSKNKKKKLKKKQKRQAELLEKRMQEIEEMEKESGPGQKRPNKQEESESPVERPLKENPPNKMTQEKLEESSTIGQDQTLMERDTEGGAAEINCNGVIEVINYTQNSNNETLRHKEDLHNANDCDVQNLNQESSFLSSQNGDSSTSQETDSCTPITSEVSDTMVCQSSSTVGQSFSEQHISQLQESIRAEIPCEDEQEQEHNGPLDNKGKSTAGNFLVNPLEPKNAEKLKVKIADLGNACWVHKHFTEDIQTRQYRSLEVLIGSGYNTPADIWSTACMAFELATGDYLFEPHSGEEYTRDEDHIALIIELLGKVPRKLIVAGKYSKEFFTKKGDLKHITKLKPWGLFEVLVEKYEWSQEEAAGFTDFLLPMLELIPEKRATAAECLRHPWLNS

With `O=C(N[C@@H](C1CC1)C(F)(F)F)c1cc(-c2cnn3cc(-c4ccc(F)cc4)cnc23)cs1`, the inhibition in test [1] was 0%; in test [4] it was 3%. Besides, the fold change (FC) in [2] is 0.14; in test [3] it was 0.03.

Take `CNC(=O)c1ccccc1Oc1nc(Nc2cc(OC)c(OC)c(OC)c2)ncc1Br`: the inhibition in [5] was determined as 0%; in test [6] it was 3%; in test [7], 41%; in test [8] it was 2%.

`CC(C)[C@H](NC(=O)c1cc(-c2cnn3cc(-c4ccc(OCCN5CCCCC5)cc4)cnc23)cs1)C(F)(F)F`: the fold change (FC) in test [9] came to 0.09; in test [11], 0. Further, in test [10], the inhibition was determined as 63%.
